Assay results published in PubChem BioAssay AID208 (DTP/NCI, 2004).
Several values for one entry are separate records, joined by “and”; a condition that tells them apart may be missing. Equal values may be shown once. Results filed as inconclusive are left out.

Tested on: HT29 intrarenal xenograft, nude mice, tumor weight change
Test: NCI In Vivo Anticancer Drug Screen. Data for tumor model HT29;CX-1 Human Adenocarcinoma (MER+) (intrarenal inoculation) in NU/NU BALB/C (nude) mice
Conditions: endpoint: mean tumor weight change, higher = larger tumour
Description: The antitumor activity of compounds was measured in mice bearing transplantable tumors. Survival or tumor size were measured and the results are expressed as the measurement made in the treated group (T) divided by the measurement made in the vehicle treated control group (C). The tumor model used in this assay is HT29;CX-1 Human Adenocarcinoma (MER+) (intrarenal inoculation) in NU/NU BALB/C (nude) mice

[1] = dose: 1200.0 mg/kg/injection, schedule: Q04DX004 (sc), vehicle: saline with Tween-80
[2] = dose: 150.0 mg/kg/injection, schedule: Q04DX004 (sc), vehicle: saline with Tween-80
[3] = dose: 300.0 mg/kg/injection, schedule: Q04DX004 (sc), vehicle: saline with Tween-80
[4] = dose: 600.0 mg/kg/injection, schedule: Q04DX004 (sc), vehicle: saline with Tween-80
[5] = dose: 12.5 mg/kg/injection, schedule: Q04DX004 (sc), vehicle: saline
[6] = dose: 25.0 mg/kg/injection, schedule: Q04DX004 (sc), vehicle: saline
[7] = dose: 50.0 mg/kg/injection, schedule: Q04DX004 (sc), vehicle: saline
[8] = dose: 100.0 mg/kg/injection, schedule: Q04DX004 (sc), vehicle: saline

Nc1nc(=O)n(C2OC(CO)C(O)C2O)cc1F (centres undefined)
T/C (dose: 300.0 mg/kg/injection, schedule: Q04DX004 (ip), vehicle: saline): 66 % of control | T/C (dose: 600.0 mg/kg/injection, schedule: Q04DX004 (ip), vehicle: saline): 64 % of control | T/C (dose: 900.0 mg/kg/injection, schedule: Q04DX004 (ip), vehicle: saline): 53 % of control | T/C (dose: 1200.0 mg/kg/injection, schedule: Q04DX004 (ip), vehicle: saline): 88 % of control

CCCCNCCCNCCCNC(=O)c1csc(-c2csc(CCNC(=O)C(NC(=O)C(C)C(O)C(C)NC(=O)C(NC(=O)c3nc(C(CC(N)=O)NCC(N)C(N)=O)nc(N)c3C)C(OC3OC(CO)C(O)C(O)C3OC3OC(CO)C(O)C(OC(N)=O)C3O)c3cnc[nH]3)C(C)O)n2)n1 (centres undefined)
T/C (dose: 8.0 mg/kg/injection, schedule: Q01DX010 (sc), vehicle: saline): 30 % of control | T/C (dose: 32.0 mg/kg/injection, schedule: Q01DX010 (sc), vehicle: saline): -32 % of control

CC(/C=C/c1ccccc1)=Nc1ccccc1
T/C [1]: 46 % of control | T/C (dose: 1800.0 mg/kg/injection, schedule: Q04DX004 (sc), vehicle: saline with Tween-80): 54 % of control

c1ccc2c(NCCCCCCNc3c4ccccc4nc4ccccc34)c3ccccc3nc2c1
T/C (dose: 5.0 mg/kg/injection, schedule: Q01DX010 (sc), vehicle: Klucel (hydroxypropylcellulose) (HPC)): 154 % of control | T/C (dose: 10.0 mg/kg/injection, schedule: Q01DX010 (sc), vehicle: Klucel (hydroxypropylcellulose) (HPC)): 88 % of control

COC1(OC)C2C=CC1CC2
T/C [2]: 114 % of control | T/C [3]: 72 % of control | T/C [4]: 123 % of control | T/C [1]: 197 % of control

O=[N+]([O-])c1nccn1CC(O)CO (centres undefined)
T/C (dose: 300.0 mg/kg/injection, schedule: Q04DX004 (sc), vehicle: saline): 86 % of control | T/C (dose: 1200.0 mg/kg/injection, schedule: Q04DX004 (sc), vehicle: saline): 81 % of control | T/C (dose: 2400.0 mg/kg/injection, schedule: Q04DX004 (sc), vehicle: saline): 112 % of control

COc1cccc2c1C(=O)c1c(O)c3c(c(O)c1C2=O)CC(O)(C(=O)CO)CC3OC1CC(N)C(O)C(C)O1 (centres undefined)
T/C (dose: 37.5 mg/kg/injection, schedule: Q04DX004 (sc), vehicle: water): 32 % of control and 53 % of control | T/C (dose: 75.0 mg/kg/injection, schedule: Q04DX004 (sc), vehicle: water): 111 % of control and 117 % of control | T/C (dose: 300.0 mg/kg/injection, schedule: Q04DX004 (sc), vehicle: water): 55 % of control and 68 % of control

CC[C@@]1(O)C[C@H](OC2CC(N(C)C)C(OC3CC(O)C(OC4CCC(=O)C(C)O4)C(C)O3)C(C)O2)c2c(cc3c(c2O)C(=O)c2c(O)cccc2C3=O)[C@H]1C(=O)OC (some centres undefined)
T/C (dose: 1.0 mg/kg/injection, schedule: Q01DX010 (ip), vehicle: water): 58 % of control | T/C (dose: 2.0 mg/kg/injection, schedule: Q01DX010 (ip), vehicle: water): 37 % of control

C=C(NC(=O)C(=C)NC(=O)c1csc(C2=NC3c4csc(n4)C4NC(=O)c5csc(n5)C(C(C)(O)C(C)O)NC(=O)C5CSC(=N5)/C(=C/C)NC(=O)C(C(C)O)NC(=O)c5csc(n5)C3(CC2)NC(=O)C(C)NC(=O)C(=C)NC(=O)C(C)NC(=O)C(C(C)CC)NC2C=Cc3c(C(C)O)cc(nc3C2O)C(=O)OC4C)n1)C(N)=O (centres undefined)
T/C (dose: 400.0 mg/kg/injection, schedule: Q01DX010 (sc), vehicle: Klucel (hydroxypropylcellulose) (HPC)): 81 % of control | T/C (dose: 800.0 mg/kg/injection, schedule: Q01DX010 (sc), vehicle: Klucel (hydroxypropylcellulose) (HPC)): 96 % of control | T/C (dose: 1600.0 mg/kg/injection, schedule: Q01DX010 (sc), vehicle: Klucel (hydroxypropylcellulose) (HPC)): 44 % of control | T/C (dose: 2400.0 mg/kg/injection, schedule: Q01DX010 (sc), vehicle: Klucel (hydroxypropylcellulose) (HPC)): 71 % of control

FC(F)(F)c1nc2nc(Cl)c(Cl)nc2[nH]1
T/C (dose: 75.0 mg/kg/injection, schedule: Q04DX004 (sc), vehicle: saline with Tween-80): 112 % of control | T/C [2]: 42 % of control | T/C [3]: 71 % of control

COc1cccc2c1C(=O)c1c(O)c3c(c(O)c1C2=O)C[C@@](O)(/C(C)=N\O)C[C@@H]3OC1CC(N)C(O)C(C)O1 (some centres undefined)
T/C [5]: 150 % of control | T/C [6]: 100 % of control | T/C [7]: 103 % of control

O=C1c2ccccc2C(=O)c2c(NCCNCCO)ccc(O)c21
T/C [5]: 104 % of control | T/C [6]: 105 % of control | T/C [8]: 74 % of control

C[C@@H]1C[C@@H]([C@H](O)CC2CC(=O)NC(=O)C2)C(=O)[C@@H](C)C1
T/C (dose: 75.0 mg/kg/injection, schedule: Q04DX004 (sc), vehicle: saline): 43 % of control

O=P1(N(CCCl)CCCl)NCCCO1 (centres undefined)
T/C (dose: 60.0 mg/kg/injection, schedule: Q04DX004 (ip), vehicle: saline): 62 % of control and 77 % of control and 83 % of control | T/C [8]: 19 % of control and 21 % of control

CC[C@@]1(O)C(=O)OCc2c1cc1n(c2=O)Cc2cc3cc(O)ccc3nc2-1
T/C (dose: 8.0 mg/kg/injection, schedule: Q04DX004 (sc), vehicle: saline): 2 % of control | T/C (dose: 16.0 mg/kg/injection, schedule: Q04DX004 (sc), vehicle: saline): -74 % of control | T/C (dose: 32.0 mg/kg/injection, schedule: Q04DX004 (sc), vehicle: saline): -92 % of control

CC(=O)OCC(=O)[C@@]12OC(C)(C)O[C@@H]1C[C@H]1[C@@H]3CC(C=O)=C4C=C(OCCCl)CC[C@]4(C)[C@@]3(F)[C@@H](O)C[C@@]12C
T/C (dose: 50.0 mg/kg/injection, schedule: Q04DX004 (sc), vehicle: Klucel (hydroxypropylcellulose) (HPC)): 101 % of control | T/C (dose: 100.0 mg/kg/injection, schedule: Q04DX004 (sc), vehicle: Klucel (hydroxypropylcellulose) (HPC)): 23 % of control

COC(=O)C[C@](O)(CCC(C)(C)O)C(=O)O[C@@H]1C(OC)=C[C@]23CCCN2CCc2cc4c(cc2[C@H]13)OCO4
T/C (dose: 0.31 mg/kg/injection, schedule: Q04DX004 (sc), vehicle: saline): 68 % of control | T/C (dose: 0.63 mg/kg/injection, schedule: Q04DX004 (sc), vehicle: saline): 84 % of control | T/C (dose: 1.25 mg/kg/injection, schedule: Q04DX004 (sc), vehicle: saline): 103 % of control | T/C (dose: 2.5 mg/kg/injection, schedule: Q04DX004 (sc), vehicle: saline): 86 % of control

CCCC(=O)O.CCCC(=O)O.CCCC(=O)O.CCCC(=O)O.[Rh].[Rh]
T/C (dose: 4.0 mg/kg/injection, schedule: Q04DX004 (sc), vehicle: suspension in saline): 99 % of control | T/C (dose: 8.0 mg/kg/injection, schedule: Q04DX004 (sc), vehicle: suspension in saline): 118 % of control

CNc1nc(NC)nc(NC)n1
T/C (dose: 12.5 mg/kg/injection, schedule: Q01DX010 (sc), vehicle: Klucel (hydroxypropylcellulose) (HPC)): 154 % of control | T/C (dose: 50.0 mg/kg/injection, schedule: Q01DX010 (sc), vehicle: Klucel (hydroxypropylcellulose) (HPC)): 73 % of control

N=C1CCCS1
T/C [5]: 117 % of control | T/C [6]: 151 % of control | T/C [7]: 96 % of control | T/C [8]: 62 % of control

N#CC(=C1SCS1)[N+](=O)[O-]
T/C (dose: 3.0 mg/kg/injection, schedule: Q04DX004 (sc), vehicle: saline): 69 % of control | T/C (dose: 6.0 mg/kg/injection, schedule: Q04DX004 (sc), vehicle: saline): 113 % of control

NC(=O)CCC(N)C(=O)O (centres undefined)
T/C (dose: 75.0 mg/kg/injection, schedule: Q04DX004 (ip), vehicle: suspension in saline): 101 % of control | T/C (dose: 150.0 mg/kg/injection, schedule: Q04DX004 (ip), vehicle: suspension in saline): 70 % of control | T/C (dose: 600.0 mg/kg/injection, schedule: Q04DX004 (ip), vehicle: suspension in saline): 95 % of control | T/C (dose: 1200.0 mg/kg/injection, schedule: Q04DX004 (ip), vehicle: suspension in saline): 107 % of control

CCOC(=O)C1(c2ccccc2)C(=O)Oc2ccccc21 (centres undefined)
T/C [2]: 83 % of control | T/C [3]: 98 % of control | T/C [4]: 117 % of control | T/C [1]: 80 % of control

O=NN(CCCl)C(=O)NC1OC(CO)C(O)C(O)C1O (centres undefined)
T/C (dose: 5.0 mg/kg/injection, schedule: Q04DX004 (sc), vehicle: saline): 75 % of control | T/C (dose: 10.0 mg/kg/injection, schedule: Q04DX004 (sc), vehicle: saline): 76 % of control | T/C (dose: 20.0 mg/kg/injection, schedule: Q04DX004 (sc), vehicle: saline): 57 % of control

Nc1nc(=S)c2ncn(C3CC(O)C(CO)O3)c2[nH]1 (centres undefined)
T/C (dose: 1.88 mg/kg/injection, schedule: Q01DX010 (sc), vehicle: saline with Tween-80): 164 % of control
